Results from patent EP0282309A2, “Azole-aminomethylene bisphosphonic acid derivatives” (YAMANOUCHI PHARMACEUTICAL CO. LTD., priority 1987, dated 1988).

Tested on: PTH-induced hypercalcemia rats
Assay: Hypercalcemia inhibiting effect: serum Ca++ lowering in PTH-induced hypercalcemia rats
Format: in vivo, Wistar male rats
Conditions: blood 45 min after PTH, mean ± S.E., N=5
Procedure: Typical effective ingredients according to the present invention were administered to parathyroid hormone (hereinafter referred to as "PTH")-induced hypercalcemia rats and, for each ingredient, the serum calcium level lowering effect was estimated. Test method: Human 1 to 34 PTH (obtained from the Peptide Institute) was intravenously administered at a dose of 30 µg/kg to 5-week-old Wistar male rats fasted for 20 hours. For the administration, PTH was dissolved in physiological saline containing 0.1% BSA (bovine serum albumin) and the solution was given to the rats in an amount of 5 ml/kg. The normal control group was given 0.1% BSA-containing physiological saline alone in the same manner. […] The blood samples were immediately centrifuged at 4°C, and 3,000 rpm (revolutions per minute) for 10 minutes. The thus-separated sera were measured for ionic calcium (Ca⁺⁺) concentration by means of a Ca⁺⁺ meter (Sera 250; Horiba Seisakusho).
The compounds according to the invention were dissolved, using sodium hydroxide and hydrochloric acid, in physiological saline (pH 7.4), for subcutaneous administration, in such amounts that the dose amounted to 2 ml/kg, and, for oral administration, in distilled water (pH 7.4) so that the dose amounted to 5 ml/kg. They were administered 24 or 72 hours before PTH administration. The normal control group and the control group were given physiological saline or distilled water in the same manner.
The results for each group were expressed in terms of mean ±S.E. (standard error) and comparison was made among the groups by testing by one-way analysis of variance. The significance level was taken at 5%.
The compound of Example 6 was administered 24 hours before PTH administration while other compounds were administered 72 hours before PTH administration.

[1] = subcutaneous administration, 0.1 mg/kg, 72 hours before PTH
[2] = subcutaneous administration, 0.3 mg/kg, 72 hours before PTH
[3] = subcutaneous administration, 1.0 mg/kg, 72 hours before PTH
[4] = oral administration, 10 mg/kg, 72 hours before PTH
[5] = oral administration, 30 mg/kg, 72 hours before PTH
[6] = oral administration, 100 mg/kg, 72 hours before PTH

Row | SMILES | Serum Ca^++ [1] | Serum Ca^++ [2] | Serum Ca^++ [3] | Serum Ca^++ (oral administration, 10 mg/kg, 24 hours before PTH) | Serum Ca^++ (oral administration, 30 mg/kg, 24 hours before PTH) | Serum Ca^++ (oral administration, 100 mg/kg, 24 hours before PTH) | Serum Ca^++ (subcutaneous administration, 0.1 mg/kg, 24 hours before PTH) | Serum Ca^++ (subcutaneous administration, 0.3 mg/kg, 24 hours before PTH) | Serum Ca^++ (subcutaneous administration, 1.0 mg/kg, 24 hours before PTH) | Serum Ca^++ [4] | Serum Ca^++ [5] | Serum Ca^++ [6] | Serum Ca^++ (subcutaneous administration, 0.03 mg/kg, 72 hours before PTH (30 µg/kg i.v.))
1 | Cc1nc(NC(P(=O)(O)O)P(=O)(O)O)sc1C [Example 21, [(4,5-Dimethyl-2-thiazolyl)amino]methylene bis(phosphonic acid)] | 1.48 ± 0.01 mmol/L | 1.40 ± 0.01 mmol/L | 1.30 ± 0.02 mmol/L | – | – | – | – | – | – | – | – | – | –
2 | O=P(O)(O)C(Nc1nccs1)P(=O)(O)O [Example 6, [(2-thiazolyl)amino]methylenebis(phosphonic acid)] | – | – | – | 1.58 ± 0.03 mmol/L | 1.54 ± 0.02 mmol/L | 1.45 ± 0.03 mmol/L | 1.49 ± 0.01 mmol/L | 1.45 ± 0.01 mmol/L | 1.41 ± 0.01 mmol/L | – | – | – | –
3 | Cc1cnc(NC(P(=O)(O)O)P(=O)(O)O)s1 [Example 20, [(5-Methyl-2-thiazolyl)amino]methylene bis(phosphonic acid)] | 0.95 ± 0.01 m moles/liter | 0.93 ± 0.03 m moles/liter | 0.92 ± 0.03 m moles/liter | – | – | – | – | – | – | 1.39 ± 0.01 mmol/L | 1.25 ± 0.01 mmol/L | 1.12 ± 0.0 mmol/L | –
4 | Cc1cnc(NC(P(=O)(O)O)P(=O)(O)O)o1 [Example 10, [(5-methyl-2-oxazolyl)amino]methylene bis(phosphonic acid)] | 1.29 ± 0.01 m moles/liter | – | – | – | – | – | – | – | – | 1.42 ± 0.03 m moles/liter | 1.27 ± 0.03 m moles/liter | 1.15 ± 0.04 m moles/liter | 1.46 ± 0.01 m moles/liter
